# Source: PubChem BioAssay AID256 (DTP/NCI, 2004)
# Values joined by “and” are separate entries in the source; they are usually repeats but may differ in a detail not shown here. Equal entries are not always repeated. Toxic doses and inconclusive results are not listed.
# Test system: CD2F1 mice, L1210 leukemia ip, survival T/C
# Experiment: NCI In Vivo Anticancer Drug Screen. Data for tumor model L1210 Leukemia (intraperitoneal) in CD2F1 (CDF1) mice
# Settings: higher = longer survival
# Summary of the method: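 Each value reflects a quotient of treated over vehicle control outcomes in mice with a transplanted tumor.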
# [1] = endpoint: mean survival time, dose: 100.0 mg/kg/injection, schedule: Q04DX003 (ip), vehicle: saline with Tween-80
# [2] = endpoint: mean survival time, dose: 50.0 mg/kg/injection, schedule: Q01DX009 (ip), vehicle: saline
compound,measurement,setting,value
BrCc1ccccc1C[P+](c1ccccc1)(c1ccccc1)c1ccccc1,T/C,"endpoint: mean survival time, dose: 3.13 mg/kg/injection, schedule: Q01DX009 (ip), vehicle: saline sonified",107 % of control
same,T/C,"endpoint: mean survival time, dose: 6.25 mg/kg/injection, schedule: Q01DX009 (ip), vehicle: saline sonified",96 % of control
same,T/C,"endpoint: mean survival time, dose: 12.5 mg/kg/injection, schedule: Q04DX003 (ip), vehicle: saline sonified",107 % of control
same,T/C,"endpoint: mean survival time, dose: 25.0 mg/kg/injection, schedule: Q04DX003 (ip), vehicle: saline sonified",100 % of control
COC(=O)Nc1cccc(OS(=O)(=O)N(C)C)c1,T/C,[1],103 % of control
[N-]=[N+]=NC1CC(n2ccc(=O)[nH]c2=O)OC1CO (stereo not given),T/C,"endpoint: median survival time, dose: 12.5 mg/kg/injection, schedule: Q01DX005 (ip), vehicle: saline",101 % of control
same,T/C,"endpoint: median survival time, dose: 25.0 mg/kg/injection, schedule: Q01DX005 (ip), vehicle: saline",102 % of control
same,T/C,"endpoint: median survival time, dose: 50.0 mg/kg/injection, schedule: Q01DX005 (ip), vehicle: saline",100 % of control
same,T/C,"endpoint: median survival time, dose: 100.0 mg/kg/injection, schedule: Q01DX005 (ip), vehicle: saline",94 % of control
same,T/C,"endpoint: median survival time, dose: 200.0 mg/kg/injection, schedule: Q01DX005 (ip), vehicle: saline",100 % of control
Cc1ccc(S(=O)(=O)OC2CCC3C4CCC5=CC(=O)CCC5(C)C4CCC23C)cc1 (stereo not given),T/C,"endpoint: mean survival time, dose: 75.0 mg/kg/injection, schedule: Q04DX003 (sc), vehicle: steriod suspending solution",98 % of control
same,T/C,"endpoint: mean survival time, dose: 150.0 mg/kg/injection, schedule: Q04DX003 (sc), vehicle: steriod suspending solution",98 % of control
same,T/C,"endpoint: mean survival time, dose: 300.0 mg/kg/injection, schedule: Q04DX003 (sc), vehicle: steriod suspending solution",98 % of control
O=C1CCCN1.O=C1CCCN1.[Br][Co][Br],T/C,"endpoint: mean survival time, dose: 37.5 mg/kg/injection, schedule: Q01DX009 (ip), vehicle: saline",102 % of control
same,T/C,"endpoint: mean survival time, dose: 75.0 mg/kg/injection, schedule: Q01DX009 (ip), vehicle: saline",107 % of control
CC[N+](C)(CC)CCCOC(=O)c1ccccc1Oc1ccc(C)cc1,T/C,[2],102 % of control
c1ccc(Nc2ccccc2)cc1 (tested in a mixture with another compound),T/C,"endpoint: mean survival time, dose: 100.0 mg/kg/injection, schedule: Q04DX002 (ip), vehicle: saline",95 % of control
O=C(NCCCl)NCCCl,T/C,"endpoint: median survival time, dose: 267.0 mg/kg/injection, schedule: Q07DX003 (ip), vehicle: saline",103 % of control
same,T/C,"endpoint: median survival time, dose: 400.0 mg/kg/injection, schedule: Q07DX003 (ip), vehicle: saline",97 % of control
same,T/C,"endpoint: median survival time, dose: 600.0 mg/kg/injection, schedule: Q07DX003 (ip), vehicle: saline",94 % of control
same,T/C,"endpoint: median survival time, dose: 800.0 mg/kg/injection, schedule: Q07DX003 (ip), vehicle: saline",99 % of control and 100 % of control
Cc1cn(C2CC3[O][Sn]([c]4ccccc4)([c]4ccccc4)[O]CC3O2)c(=O)[nH]c1=O (stereo not given),T/C,"endpoint: mean survival time, dose: 0.75 mg/kg/injection, schedule: Q01DX005 (ip), vehicle: other",90 % of control
same,T/C,"endpoint: mean survival time, dose: 0.78 mg/kg/injection, schedule: Q01DX005 (ip), vehicle: other",96 % of control and 100 % of control
same,T/C,"endpoint: mean survival time, dose: 1.5 mg/kg/injection, schedule: Q01DX005 (ip), vehicle: other",90 % of control
same,T/C,"endpoint: mean survival time, dose: 1.5 mg/kg/injection, schedule: Q01DX005 (ip), vehicle: saline",89 % of control
same,T/C,"endpoint: mean survival time, dose: 3.0 mg/kg/injection, schedule: Q01DX005 (ip), vehicle: other",95 % of control
same,T/C,"endpoint: mean survival time, dose: 3.0 mg/kg/injection, schedule: Q01DX005 (ip), vehicle: saline",89 % of control
same,T/C,"endpoint: mean survival time, dose: 6.0 mg/kg/injection, schedule: Q01DX005 (ip), vehicle: saline",97 % of control
same,T/C,"endpoint: mean survival time, dose: 6.25 mg/kg/injection, schedule: Q01DX005 (ip), vehicle: other",203 % of control and 102 % of control and 105 % of control
same,T/C,"endpoint: mean survival time, dose: 6.25 mg/kg/injection, schedule: Q01DX009 (ip), vehicle: saline",109 % of control
same,T/C,"endpoint: mean survival time, dose: 12.0 mg/kg/injection, schedule: Q01DX005 (ip), vehicle: other",100 % of control
same,T/C,"endpoint: mean survival time, dose: 12.0 mg/kg/injection, schedule: Q01DX005 (ip), vehicle: saline",104 % of control
same,T/C,"endpoint: mean survival time, dose: 12.5 mg/kg/injection, schedule: Q01DX009 (ip), vehicle: saline",107 % of control
same,T/C,"endpoint: mean survival time, dose: 24.0 mg/kg/injection, schedule: Q01DX005 (ip), vehicle: other",104 % of control
same,T/C,"endpoint: mean survival time, dose: 24.0 mg/kg/injection, schedule: Q01DX005 (ip), vehicle: saline",103 % of control
same,T/C,"endpoint: mean survival time, dose: 25.0 mg/kg/injection, schedule: Q01DX009 (ip), vehicle: saline",113 % of control
same,T/C,[2],110 % of control
same,T/C,"endpoint: mean survival time, dose: 100.0 mg/kg/injection, schedule: Q01DX009 (ip), vehicle: saline",103 % of control
same,T/C,"endpoint: mean survival time, dose: 200.0 mg/kg/injection, schedule: Q01DX009 (ip), vehicle: saline",115 % of control
Cc1ccc([N+](=O)[O-])cc1C#N,T/C,[1],105 % of control
same,T/C,"endpoint: mean survival time, dose: 200.0 mg/kg/injection, schedule: Q04DX003 (ip), vehicle: saline with Tween-80",105 % of control
same,T/C,"endpoint: mean survival time, dose: 400.0 mg/kg/injection, schedule: Q04DX003 (ip), vehicle: saline with Tween-80",113 % of control
Oc1ccc2ccccc2c1NC(=S)Nc1ccccc1,T/C,"endpoint: mean survival time, dose: 100.0 mg/kg/injection, schedule: Q04DX002 (ip), vehicle: Klucel (hydroxypropylcellulose) (HPC)",97 % of control
same,T/C,"endpoint: mean survival time, dose: 200.0 mg/kg/injection, schedule: Q04DX002 (ip), vehicle: Klucel (hydroxypropylcellulose) (HPC)",93 % of control
same,T/C,"endpoint: mean survival time, dose: 400.0 mg/kg/injection, schedule: Q04DX002 (ip), vehicle: Klucel (hydroxypropylcellulose) (HPC)",93 % of control
C=C(C(=O)OC)N1C(=O)CC(C)C1=O (stereo not given),T/C,"endpoint: mean survival time, dose: 12.5 mg/kg/injection, schedule: Q04DX002 (ip), vehicle: saline with Tween-80",97 % of control
same,T/C,"endpoint: mean survival time, dose: 25.0 mg/kg/injection, schedule: Q04DX002 (ip), vehicle: saline with Tween-80",108 % of control
same,T/C,"endpoint: mean survival time, dose: 50.0 mg/kg/injection, schedule: Q04DX002 (ip), vehicle: saline with Tween-80",90 % of control
same,T/C,"endpoint: mean survival time, dose: 100.0 mg/kg/injection, schedule: Q04DX002 (ip), vehicle: saline with Tween-80",86 % of control
NC(CC(=O)CCl)C(=O)O (stereo not given),T/C,"endpoint: mean survival time, dose: 6.25 mg/kg/injection, schedule: Q04DX003 (ip), vehicle: saline",120 % of control
same,T/C,"endpoint: mean survival time, dose: 37.5 mg/kg/injection, schedule: Q04DX003 (ip), vehicle: saline",109 % of control
same,T/C,"endpoint: median survival time, dose: 10.0 mg/kg/injection, schedule: Q01DX001 (ip), vehicle: saline",121 % of control
same,T/C,"endpoint: median survival time, dose: 20.0 mg/kg/injection, schedule: Q01DX001 (ip), vehicle: saline",121 % of control
same,T/C,"endpoint: median survival time, dose: 30.0 mg/kg/injection, schedule: Q01DX009 (ip), vehicle: saline",122 % of control
same,T/C,"endpoint: median survival time, dose: 40.0 mg/kg/injection, schedule: Q01DX001 (ip), vehicle: saline",122 % of control
same,T/C,"endpoint: median survival time, dose: 60.0 mg/kg/injection, schedule: Q01DX009 (ip), vehicle: saline",35 % of control
CCOC(=O)C#Cc1cccc(C(=O)OC)c1-c1c(I)cccc1C(=O)OC,T/C,"endpoint: median survival time, dose: 12.5 mg/kg/injection, schedule: Q04DX003 (ip), vehicle: saline with Tween-80",100 % of control
same,T/C,"endpoint: median survival time, dose: 25.0 mg/kg/injection, schedule: Q04DX003 (ip), vehicle: saline with Tween-80",100 % of control
same,T/C,"endpoint: median survival time, dose: 50.0 mg/kg/injection, schedule: Q04DX003 (ip), vehicle: saline with Tween-80",88 % of control
same,T/C,"endpoint: median survival time, dose: 100.0 mg/kg/injection, schedule: Q04DX003 (ip), vehicle: saline with Tween-80",88 % of control
CCOC(=O)/C=C/C(=O)N1CCN(C(=O)/C=C/C(=O)OCC)C(C)C1 (stereo not given),T/C,"endpoint: median survival time, dose: 25.0 mg/kg/injection, schedule: Q01DX009 (ip), vehicle: Klucel (hydroxypropylcellulose) (HPC)",106 % of control
same,T/C,"endpoint: median survival time, dose: 50.0 mg/kg/injection, schedule: Q01DX009 (ip), vehicle: Klucel (hydroxypropylcellulose) (HPC)",110 % of control
same,T/C,"endpoint: median survival time, dose: 100.0 mg/kg/injection, schedule: Q01DX009 (ip), vehicle: Klucel (hydroxypropylcellulose) (HPC)",109 % of control
same,T/C,"endpoint: median survival time, dose: 200.0 mg/kg/injection, schedule: Q01DX009 (ip), vehicle: Klucel (hydroxypropylcellulose) (HPC)",109 % of control
same,T/C,"endpoint: median survival time, dose: 400.0 mg/kg/injection, schedule: Q01DX009 (ip), vehicle: Klucel (hydroxypropylcellulose) (HPC)",109 % of control
COc1cccc2c1C(=O)c1c(O)c3c(c(O)c1C2=O)C[C@@](O)(C(=O)CN1CCN(C)CC1)C[C@@H]3OC1CC(N)C(O)C(C)O1 (stereo not given in full),T/C,"endpoint: mean survival time, dose: 6.25 mg/kg/injection, schedule: Q04DX003 (ip), vehicle: water",88 % of control
same,T/C,"endpoint: mean survival time, dose: 12.5 mg/kg/injection, schedule: Q04DX003 (ip), vehicle: water",90 % of control
same,T/C,"endpoint: mean survival time, dose: 25.0 mg/kg/injection, schedule: Q04DX003 (ip), vehicle: water",90 % of control
same,T/C,"endpoint: mean survival time, dose: 50.0 mg/kg/injection, schedule: Q04DX003 (ip), vehicle: water",91 % of control
same,T/C,"endpoint: mean survival time, dose: 100.0 mg/kg/injection, schedule: Q04DX003 (ip), vehicle: water",86 % of control
CCOP(=O)(NCc1ccco1)OCC,T/C,"endpoint: mean survival time, dose: 50.0 mg/kg/injection, schedule: Q01DX001 (ip), vehicle: carboxymethylcellulose (CMC)",106 % of control
same,T/C,"endpoint: mean survival time, dose: 100.0 mg/kg/injection, schedule: Q01DX001 (ip), vehicle: carboxymethylcellulose (CMC)",112 % of control
CCNC(=O)OCc1c(COC(=O)NCC)c(-c2ccc(Cl)c(Cl)c2)n2c1CCC2,T/C,"endpoint: mean survival time, dose: 0.78 mg/kg/injection, schedule: Q01DX009 (ip), vehicle: saline with Tween-80",101 % of control
same,T/C,"endpoint: mean survival time, dose: 1.56 mg/kg/injection, schedule: Q01DX009 (ip), vehicle: saline with Tween-80",108 % of control
same,T/C,"endpoint: mean survival time, dose: 50.0 mg/kg/injection, schedule: Q01DX009 (ip), vehicle: saline with Tween-80",91 % of control and 94 % of control and 111 % of control
